From ChEMBL document CHEMBL1201862, “PubChem BioAssay data set” (2004)
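In this assay, cells in 96-well plates receive the compound at five concentrations for 48 hours. Endpoints are linearly interpolated between the surrounding concentrations. GI50 is the concentration that inhibits growth by half.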 Calls of active or inactive are those of the source. Cut-off read from the data, not from the text of the source: active = GI50 up to about 1.1 µM and inactive = higher.

Assays:
Assay in all cases: NCI anticancer screen, dose series, 48 h
COLO 205 = tested on: COLO 205
SF-295 = tested on: SF-295
SF-268 = tested on: SF-268
KM12 = tested on: KM12
RPMI-8226 = tested on: RPMI-8226
NCI-H522 = tested on: NCI-H522
CAKI-1 = tested on: CAKI-1
786-0 = tested on: 786-0
CCRF-CEM = tested on: CCRF-CEM
U-251 = tested on: U-251
HOP-62 = tested on: HOP-62
SK-MEL-2 = tested on: SK-MEL-2
A498 = tested on: A498
MOLT-4 = tested on: MOLT-4
MDA-MB-231 = tested on: MDA-MB-231
OVCAR-4 = tested on: OVCAR-4
NCI-H460 = tested on: NCI-H460
SW-620 = tested on: SW-620
NCI-H23 = tested on: NCI-H23
SR = tested on: SR
MCF7 = tested on: MCF7
HCT-15 = tested on: HCT-15
SK-MEL-28 = tested on: SK-MEL-28
UO-31 = tested on: UO-31
SK-OV-3 = tested on: SK-OV-3
UACC-62 = tested on: UACC-62
HCC 2998 = tested on: HCC 2998
EKVX = tested on: EKVX
OVCAR-5 = tested on: OVCAR-5
TK-10 = tested on: TK-10
SF-539 = tested on: SF-539
IGROV-1 = tested on: IGROV-1
ACHN = tested on: ACHN
DU-145 = tested on: DU-145
Hs-578T = tested on: Hs-578T
HOP-92 = tested on: HOP-92
A549 = tested on: A549
HL-60 = tested on: HL-60
K562 = tested on: K562
MDA-N = tested on: MDA-N
HCT-116 = tested on: HCT-116
RXF 393 = tested on: RXF 393
SNB-75 = tested on: SNB-75
M14 = tested on: M14
SNB-19 = tested on: SNB-19
OVCAR-3 = tested on: OVCAR-3
PC-3 = tested on: PC-3
T47D = tested on: T47D
SN12C = tested on: SN12C
LOX IMVI = tested on: LOX IMVI
Malme-3M = tested on: Malme-3M
MDA-MB-435 = tested on: MDA-MB-435
SK-MEL-5 = tested on: SK-MEL-5
UACC-257 = tested on: UACC-257

SMILES: CCN(CC)C(=O)C1=C(C)NC(C)=C(C(=O)N(CC)CC)C1
- GI50 (COLO 205): > 100 µM (inactive)
- GI50 (SF-295): > 100 µM (inactive)
- GI50 (SF-268): 53 µM (inactive)
- GI50 (KM12): > 100 µM (inactive)
- GI50 (RPMI-8226): > 100 µM (inactive)
- GI50 (NCI-H522): > 100 µM (inactive)
- GI50 (CAKI-1): > 100 µM (inactive)
- GI50 (786-0): > 100 µM (inactive)
- GI50 (CCRF-CEM): > 100 µM (inactive)
- GI50 (U-251): > 100 µM (inactive)
- GI50 (HOP-62): > 100 µM (inactive)
- GI50 (SK-MEL-2): > 100 µM (inactive)
- GI50 (A498): > 100 µM (inactive)
- GI50 (MOLT-4): > 100 µM (inactive)
- GI50 (MDA-MB-231): 39.4 µM (inactive)
- GI50 (OVCAR-4): > 100 µM (inactive)
- GI50 (NCI-H460): > 100 µM (inactive)
- GI50 (SW-620): > 100 µM (inactive)
- GI50 (NCI-H23): > 100 µM (inactive)
- GI50 (SR): > 100 µM (inactive)
- GI50 (MCF7): > 100 µM (inactive)
- GI50 (HCT-15): > 100 µM
- GI50 (SK-MEL-28): > 100 µM (inactive)
- GI50 (UO-31): 81.1 µM (inactive)
- GI50 (SK-OV-3): > 100 µM (inactive)
- GI50 (UACC-62): > 100 µM (inactive)
- GI50 (HCC 2998): > 100 µM (inactive)
- GI50 (EKVX): > 100 µM (inactive)
- GI50 (OVCAR-5): > 100 µM (inactive)
- GI50 (TK-10): > 100 µM (inactive)
- GI50 (SF-539): > 100 µM (inactive)
- GI50 (IGROV-1): > 100 µM (inactive)
- GI50 (ACHN): > 100 µM (inactive)
- GI50 (DU-145): > 100 µM (inactive)
- GI50 (Hs-578T): 44.7 µM (inactive)
- GI50 (HOP-92): > 100 µM (inactive)
- GI50 (A549): > 100 µM (inactive)
- GI50 (HL-60): > 100 µM (inactive)
- GI50 (K562): 41.4 µM (inactive)
- GI50 (MDA-N): > 100 µM (inactive)
- GI50 (HCT-116): > 100 µM (inactive)
- GI50 (RXF 393): > 100 µM (inactive)
- GI50 (SNB-75): 14.5 µM (inactive)
- GI50 (M14): > 100 µM (inactive)
- GI50 (SNB-19): > 100 µM (inactive)
- GI50 (OVCAR-3): > 100 µM (inactive)
- GI50 (PC-3): > 100 µM (inactive)
- GI50 (T47D): 58.1 µM (inactive)
- GI50 (SN12C): > 100 µM (inactive)
- GI50 (LOX IMVI): > 100 µM (inactive)
- GI50 (Malme-3M): > 100 µM (inactive)
- GI50 (MDA-MB-435): 81.1 µM (inactive)
- GI50 (SK-MEL-5): > 100 µM (inactive)
- GI50 (UACC-257): > 100 µM (inactive)
